Reference: ChEMBL document CHEMBL5052840, “Pharmaceutical compounds and therapeutic methods” (2020)
Blank lines part the entries; values can stand above or below the compound they belong to. Calls of active or inactive are those of the source. No cut-off for these calls is given here.

How the values were obtained:
[1] = target: T1, Polycomb complex protein BMI-1 (Homo sapiens) (UniProt P35226); assay: Inhibition of BMI1 in human Glioblastoma cell 3D spheres at 7 to 10 nM assessed as reduction in BMI1 protein levels measured by Western blotting method; format: cell-based; conditions: Glioblastoma cell line, dose 7-10 nM
T1 sequence (whole entry): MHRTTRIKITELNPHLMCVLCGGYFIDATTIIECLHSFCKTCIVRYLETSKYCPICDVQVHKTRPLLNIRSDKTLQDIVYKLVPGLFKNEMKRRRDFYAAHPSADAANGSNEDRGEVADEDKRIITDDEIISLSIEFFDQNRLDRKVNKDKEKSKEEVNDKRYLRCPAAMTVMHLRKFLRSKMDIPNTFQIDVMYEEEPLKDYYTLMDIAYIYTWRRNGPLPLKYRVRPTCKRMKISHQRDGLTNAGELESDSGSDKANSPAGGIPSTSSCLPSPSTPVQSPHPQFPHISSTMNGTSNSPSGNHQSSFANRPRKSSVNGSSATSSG

[2] = target: T1, Polycomb complex protein BMI-1 (Homo sapiens); assay: Inhibition of BMI1 in human Glioblastoma cell 3D spheres at 7 to 10 nM assessed as reduction in phospho-RB levels measured by Western blotting method; format: cell-based; conditions: Glioblastoma cell line, dose 7-10 nM
[3] = target: T1, Polycomb complex protein BMI-1 (Homo sapiens); assay: Inhibition of BMI1 in human Glioblastoma cell 3D spheres at 7 to 10 nM assessed as reduction in STAT1 levels measured by Western blotting method; format: cell-based; conditions: Glioblastoma cell line, dose 7-10 nM
[4] = target: T1, Polycomb complex protein BMI-1 (Homo sapiens); assay: Inhibition of BMI1 in human Glioblastoma cell 3D spheres at 7 to 10 nM assessed as reduction in BMI1 protein levels measured up to 120 hrs by Western blotting method; format: cell-based; conditions: Glioblastoma cell line, dose 7-10 nM, time hrs <=120
[5] = target: T1, Polycomb complex protein BMI-1 (Homo sapiens); assay: Inhibition of BMI1 in human Glioblastoma cell 3D spheres at 7 to 10 nM assessed as reduction in PD-L1 protein levels measured up to 120 hrs by Western blotting method; format: cell-based; conditions: Glioblastoma cell line, dose 7-10 nM, time hrs <=120
[6] = target: T1, Polycomb complex protein BMI-1 (Homo sapiens); assay: Inhibition of BMI1 in human Glioblastoma cell 3D spheres at 7 to 10 nM assessed as reduction in phospho-RB levels measured up to 120 hrs by Western blotting method; format: cell-based; conditions: Glioblastoma cell line, dose 7-10 nM, time hrs <=120
[7] = Plasma concentration in male C57BL/6 mouse at 2 mg/kg, iv administered as single dose measured at 0.08 hrs measured by LC/MS-MS analysis; format: ADME, organism-based
[8] = Plasma concentration in male C57BL/6 mouse at 2 mg/kg, iv administered as single dose measured at 0.35 hrs measured by LC/MS-MS analysis; format: ADME, organism-based
[9] = Plasma concentration in male C57BL/6 mouse at 2 mg/kg, iv administered as single dose measured at 1 hr measured by LC/MS-MS analysis; format: ADME, organism-based
[10] = Plasma concentration in male C57BL/6 mouse at 10 mg/kg, ip administered as single dose measured at 0.08 hrs measured by LC/MS-MS analysis; format: ADME, organism-based
[11] = Plasma concentration in male C57BL/6 mouse at 10 mg/kg, ip administered as single dose measured at 0.35 hrs measured by LC/MS-MS analysis; format: ADME, organism-based
[12] = Plasma concentration in male C57BL/6 mouse at 10 mg/kg, ip administered as single dose measured at 1 hr measured by LC/MS-MS analysis; format: ADME, organism-based
[13] = Plasma concentration in male C57BL/6 mouse at 10 mg/kg, ip administered as single dose measured at 3 hrs measured by LC/MS-MS analysis; format: ADME, organism-based
[14] = Plasma concentration in male C57BL/6 mouse at 10 mg/kg, ip administered as single dose measured at 6 hrs measured by LC/MS-MS analysis; format: ADME, organism-based
[15] = Plasma concentration in male C57BL/6 mouse at 10 mg/kg, po administered as single dose measured at 0.08 hrs measured by LC/MS-MS analysis; format: ADME, organism-based
[16] = Plasma concentration in male C57BL/6 mouse at 10 mg/kg, po administered as single dose measured at 0.35 hrs measured by LC/MS-MS analysis; format: ADME, organism-based
[17] = Plasma concentration in male C57BL/6 mouse at 10 mg/kg, po administered as single dose measured at 1 hr measured by LC/MS-MS analysis; format: ADME, organism-based
[18] = Plasma concentration in male C57BL/6 mouse at 10 mg/kg, po administered as single dose measured at 3 hrs measured by LC/MS-MS analysis; format: ADME, organism-based
[19] = Plasma concentration in male C57BL/6 mouse at 10 mg/kg, po administered as single dose measured at 6 hrs measured by LC/MS-MS analysis; format: ADME, organism-based
[20] = Brain concentration in male C57BL/6 mouse at 2 mg/kg, iv administered as single dose measured at 0.08 hrs measured by LC/MS-MS analysis; format: ADME, organism-based; conditions: read-out: Drug uptake
[21] = Brain concentration in male C57BL/6 mouse at 2 mg/kg, iv administered as single dose measured at 0.35 hrs measured by LC/MS-MS analysis; format: ADME, organism-based; conditions: read-out: Drug uptake
[22] = Brain concentration in male C57BL/6 mouse at 2 mg/kg, iv administered as single dose measured at 1 hr measured by LC/MS-MS analysis; format: ADME, organism-based; conditions: read-out: Drug uptake
[23] = Brain concentration in male C57BL/6 mouse at 10 mg/kg, ip administered as single dose measured at 0.08 hrs measured by LC/MS-MS analysis; format: ADME, organism-based; conditions: read-out: Drug uptake
[24] = Brain concentration in male C57BL/6 mouse at 10 mg/kg, ip administered as single dose measured at 0.35 hrs measured by LC/MS-MS analysis; format: ADME, organism-based; conditions: read-out: Drug uptake
[25] = Brain concentration in male C57BL/6 mouse at 10 mg/kg, ip administered as single dose measured at 1 hr measured by LC/MS-MS analysis; format: ADME, organism-based; conditions: read-out: Drug uptake
[26] = Brain concentration in male C57BL/6 mouse at 10 mg/kg, ip administered as single dose measured at 3 hrs measured by LC/MS-MS analysis; format: ADME, organism-based; conditions: read-out: Drug uptake
[27] = Brain concentration in male C57BL/6 mouse at 10 mg/kg, ip administered as single dose measured at 6 hrs measured by LC/MS-MS analysis; format: ADME, organism-based; conditions: read-out: Drug uptake
[28] = Brain concentration in male C57BL/6 mouse at 10 mg/kg, po administered as single dose measured at 0.08 hrs measured by LC/MS-MS analysis; format: ADME, organism-based; conditions: read-out: Drug uptake
[29] = Brain concentration in male C57BL/6 mouse at 10 mg/kg, po administered as single dose measured at 0.35 hrs measured by LC/MS-MS analysis; format: ADME, organism-based; conditions: read-out: Drug uptake
[30] = Brain concentration in male C57BL/6 mouse at 10 mg/kg, po administered as single dose measured at 1 hr measured by LC/MS-MS analysis; format: ADME, organism-based; conditions: read-out: Drug uptake
[31] = Brain concentration in male C57BL/6 mouse at 10 mg/kg, po administered as single dose measured at 3 hrs measured by LC/MS-MS analysis; format: ADME, organism-based; conditions: read-out: Drug uptake
[32] = Brain concentration in male C57BL/6 mouse at 10 mg/kg, po administered as single dose measured at 6 hrs measured by LC/MS-MS analysis; format: ADME, organism-based; conditions: read-out: Drug uptake
[33] = Cmax in male C57BL/6 mouse plasma at 2 mg/kg, iv measured by LC/MS-MS analysis; format: ADME, organism-based; set-up: route intravenous, dose 2 mg/kg
[34] = Oral bioavailability in male C57BL/6 mouse plasma at 10 mg/kg measured by LC/MS-MS analysis; format: ADME, organism-based
[35] = Cmax in male C57BL/6 mouse brain at 2 mg/kg, iv measured by LC/MS-MS analysis; format: ADME, organism-based; set-up: route intravenous, dose 2 mg/kg
[36] = AUClast in male C57BL/6 mouse brain at 2 mg/kg, iv measured by LC/MS-MS analysis; format: ADME, organism-based; conditions: in vivo
[37] = AUClast in male C57BL/6 mouse brain at 10 mg/kg, ip measured by LC/MS-MS analysis; format: ADME, organism-based; conditions: in vivo
[38] = AUClast in male C57BL/6 mouse brain at 10 mg/kg, po measured by LC/MS-MS analysis; format: ADME, organism-based; conditions: in vivo
[39] = AUC (infinity) in male C57BL/6 mouse brain at 10 mg/kg, po measured by LC/MS-MS analysis; format: ADME, organism-based; set-up: time infinity, route oral, dose 10 mg/kg; conditions: in vivo
[40] = Antiproliferative activity against human Glioblastoma cell after 72 hrs by MTT assay; format: functional, cell-based; conditions: Glioblastoma cell line

inhibition [1]: Active
inhibition [2]: Active
inhibition [3]: Active
inhibition [4]: Active
inhibition [5]: Active
inhibition [6]: Active
SMILES: COc1c(F)cc(Nc2nc(-c3c(C)nc4ccccn34)cs2)cc1F.Cl

SMILES: Cl.[2H]C1([2H])Oc2ccc(Nc3nc(-c4c(C)nc5ccccn45)cs3)cc2O1
concentration at 0.08 h [7]: 256 ng/mL
concentration at 0.35 h [8]: 44.8 ng/mL
concentration at 1 h [9]: 9.57 ng/mL
concentration at 0.08 h [10]: 469 ng/mL
concentration at 0.35 h [11]: 458 ng/mL
concentration at 1 h [12]: 232 ng/mL
concentration at 3 h [13]: 74.9 ng/mL
concentration at 6 h [14]: 43.7 ng/mL
concentration at 0.08 h [15]: 207 ng/mL
concentration at 0.35 h [16]: 163 ng/mL
concentration at 1 h [17]: 109 ng/mL
concentration at 3 h [18]: 63.5 ng/mL
concentration at 6 h [19]: 45.5 ng/mL
concentration at 0.08 h [20]: 44.9 ng/g
concentration at 0.35 h [21]: 180 ng/g
concentration at 1 h [22]: 13.8 ng/g
concentration at 0.08 h [23]: 288 ng/g
concentration at 0.35 h [24]: 236 ng/g
concentration at 1 h [25]: 90.3 ng/g
concentration at 3 h [26]: 82 ng/g
concentration at 6 h [27]: 26 ng/g
concentration at 0.08 h [28]: 67.3 ng/g
concentration at 0.35 h [29]: 53 ng/g
concentration at 1 h [30]: 51.9 ng/g
concentration at 3 h [31]: 20.5 ng/g
concentration at 6 h [32]: 10.5 ng/g
Cmax [33]: 430 ng/mL
bioavailability [34]: 100%
Cmax [35]: 44.9 ng/g
AUClast [36]: 97.08 ng·h/g
AUClast [37]: 360.87 ng·h/g
AUClast [38]: 171.84 ng·h/g
AUC [39]: 204.06 ng·h/g

inhibition ([1]; tested as the 2H-labelled form): Active
inhibition ([2]; tested as the 2H-labelled form): Active
inhibition ([3]; tested as the 2H-labelled form): Active
SMILES: Cc1nc2ccccn2c1-c1csc(Nc2ccc3c(c2)OCO3)n1

inhibition ([1]; tested as the 2H-labelled form): Active
inhibition ([2]; tested as the 2H-labelled form): Active
inhibition ([3]; tested as the 2H-labelled form): Active
SMILES: COc1ccc(Nc2nc(-c3c(C)nc4ccccn34)cs2)cc1
IC50 [40]: 10 nM
